Reference: US11077115B2, “Rorgamma modulators and uses thereof” (Genfit, priority 2017, dated 2021)
Structures can show the parent of a compound that is named as a salt.

Going from `Cc1ccc(C(NC(=O)Cc2ccc(N3CCS(=O)(=O)CC3)cc2C)c2ccc(C)o2)c(N2CCCCC2)c1` (stereo not shown) (as salt: HCl) [Cpd. 18, 2-[4-(1,1-dioxo-1-thiomorpholin-4-yl)-2-methylphenyl]-N-{[4-methyl-2-(piperidin-1-yl)phenyl](5-methylfuran-2-yl)methyl}acetamide] to `Cc1ccc(C(NC(=O)Cc2ccc(N3CCS(=O)(=O)CC3)cn2)c2ccc(C)o2)c(N2CCCCC2)c1` (stereo not shown) (as salt: HCl) [Cpd. 47, 2-[5-(1,1-dioxo-1-thiomorpholin-4-yl)pyridin-2-yl]-N-{[4-methyl-2-(piperidin-1-yl)phenyl](5-methylfuran-2-yl)methyl}acetamide], the melting point rises from 96 °C to 102 °C.

First: Cc1ccc(C(NC(=O)Cc2ccc(N3CCS(=O)(=O)CC3)cc2C)c2ccc(C)o2)c(C)c1 (stereo not shown) (as salt: HCl) [Cpd. 19, N-[(2,4-dimethylphenyl)(5-methylfuran-2-yl)methyl]-2-[4-(1,1-dioxo-1-thiomorpholin-4-yl)-2-methylphenyl]acetamide]
Second: Cc1ccc(C(NC(=O)Cc2ccc(N3CCS(=O)(=O)CC3)cc2C)c2ccc(C)o2)c(Br)c1 (stereo not shown) (as salt: HCl) [Cpd. 21, N-[(2-bromo-4-methylphenyl)(5-methylfuran-2-yl)methyl]-2-[4-(1,1-dioxo-1-thiomorpholin-4-yl)-2-methylphenyl]acetamide]
The melting point of the first is higher: 178 °C for the first, 173 °C for the second.

Going from `Cc1ccc(C(NC(=O)Cc2cnc(N3CCS(=O)(=O)CC3)nc2)c2ccc(C)o2)c(N2CCCCC2)c1` (stereo not shown) (as salt: HCl) [Cpd. 20, 2-[2-(1,1-dioxo-1-thiomorpholin-4-yl)pyrimidin-5-yl]-N-{[4-methyl-2-(piperidin-1-yl)phenyl](5-methylfuran-2-yl)methyl}acetamide] to `COc1ccc(C(NC(=O)Cc2cnc(N3CCS(=O)(=O)CC3)nc2)c2ccc(C)o2)c(N2CCCCCC2)c1` (stereo not shown) (as salt: HCl) [Cpd. 45, N-{[2-(azepan-1-yl)-4-methoxyphenyl](5-methylfuran-2-yl)methyl}-2-[2-(1,1-dioxo-1-thiomorpholin-4-yl)pyrimidin-5-yl]acetamide], the melting point rises from 91 °C to 106 °C.

Compared with `Cc1ccc(C(NC(=O)Cc2ccc(N3CCS(=O)(=O)CC3)cc2)c2ccccc2)c(N2CC3CC3C2)c1` (stereo not shown) (as salt: HCl) [Cpd. 22, N-[(2-{3-azabicyclo[3.1.0]hexan-3-yl}-4-methylphenyl)(phenyl)methyl]-2-[4-(1,1-dioxo-1-thiomorpholin-4-yl)phenyl]acetamide], `Cc1ccc(C(NC(=O)Cc2ccc(N3CCS(=O)(=O)CC3)c(C)c2)c2ccccc2)c(N2CC3CC3C2)c1` (stereo not shown) (as salt: HCl) [Cpd. 23, N-[(2-{3-azabicyclo[3.1.0]hexan-3-yl}-4-methylphenyl)(phenyl)methyl]-2-[4-(1,1-dioxo-1-thiomorpholin-4-yl)-3-methylphenyl]acetamide] is higher in melting point: 104 °C for the first, 109 °C for the second.

First: Cc1ccc(C(NC(=O)Cc2ccc(N3CCS(=O)(=O)CC3)cc2)c2ccc(C)o2)c(C(F)(F)F)c1 (stereo not shown) (as salt: HCl) [Cpd. 24, 2-[4-(1,1-dioxo-1-thiomorpholin-4-yl)phenyl]-N-{[4-methyl-2-(trifluoromethyl)phenyl](5-methylfuran-2-yl)methyl}acetamide]
Second: Cc1ccc(C(NC(=O)Cc2cnc(N3CCS(=O)(=O)CC3)nc2)c2ccc(C)o2)c(C(F)(F)F)c1 (stereo not shown) (as salt: HCl) [Cpd. 33, 2-[2-(1,1-dioxo-1-thiomorpholin-4-yl)pyrimidin-5-yl]-N-{[4-methyl-2-(trifluoromethyl)phenyl](5-methylfuran-2-yl)methyl}acetamide]
The melting point of the first is lower: 90 °C for the first, 224 °C for the second.

Compared with `Cc1ccc(C(NC(=O)Cc2ccc(N3CCOCC3)nc2)c2ccc(C)o2)c(N2CCCCC2)c1` (stereo not shown) (as salt: HCl) [Cpd. 25, N-{[4-methyl-2-(piperidin-1-yl)phenyl](5-methylfuran-2-yl)methyl}-2-[6-(morpholin-4-yl)pyridin-3-yl]acetamide], `Cc1ccc(C(NC(=O)Cc2cnc(N3CCOCC3)nc2)c2ccc(C)o2)c(N2CCCCC2)c1` (stereo not shown) (as salt: HCl) [Cpd. 26, N-{[4-methyl-2-(piperidin-1-yl)phenyl](5-methylfuran-2-yl)methyl}-2-[2-(morpholin-4-yl)pyrimidin-5-yl]acetamide] is higher in melting point: 61 °C for the first, 69 °C for the second.

Compared with `Cc1ccc(C(NC(=O)Cc2ccc(N3CCS(=O)(=O)CC3)nc2)c2ccc(C)o2)c(N2CCCCC2)c1` (stereo not shown) (as salt: HCl) [Cpd. 27, 2-[6-(1,1-dioxo-1-thiomorpholin-4-yl)pyridin-3-yl]-N-{[4-methyl-2-(piperidin-1-yl)phenyl](5-methylfuran-2-yl)methyl}acetamide], `Cc1ccc(C(NC(=O)Cc2ccc(O)c(N3CCS(=O)(=O)CC3)c2)c2ccc(C)o2)c(N2CCCCC2)c1` (stereo not shown) (as salt: HCl) [Cpd. 39, 2-[3-(1,1-dioxo-1-thiomorpholin-4-yl)-4-hydroxyphenyl]-N-{[4-methyl-2-(piperidin-1-yl)phenyl](5-methylfuran-2-yl)methyl}acetamide] is higher in melting point: 102 °C for the first, 118 °C for the second.

First: COc1cc(CC(=O)NC(c2ccc(C)o2)c2ccc(C)cc2N2CCCCC2)ccc1N1CCS(=O)(=O)CC1 (stereo not shown) (as salt: HCl) [Cpd. 29, 2-[4-(1,1-dioxo-1-thiomorpholin-4-yl)-3-methoxyphenyl]-N-{[4-methyl-2-(piperidin-1-yl)phenyl](5-methylfuran-2-yl)methyl}acetamide]
Second: COc1ccc(CC(=O)NC(c2ccc(C)o2)c2ccc(C)cc2N2CCCCC2)cc1N1CCS(=O)(=O)CC1 (stereo not shown) (as salt: HCl) [Cpd. 30, 2-[3-(1,1-dioxo-1-thiomorpholin-4-yl)-4-methoxyphenyl]-N-{[4-methyl-2-(piperidin-1-yl)phenyl](5-methylfuran-2-yl)methyl}acetamide]
The melting point of the first is higher: 90 °C for the first, 88 °C for the second.

First: Cc1ccc(C(NC(=O)C2(c3ccc(N4CCS(=O)(=O)CC4)cc3)CC2)c2ccc(C)o2)c(C)c1 (stereo not shown) (as salt: HCl) [Cpd. 31, N-[(2,4-dimethylphenyl)(5-methylfuran-2-yl)methyl]-1-[4-(1,1-dioxo-1-thiomorpholin-4-yl)phenyl]cyclopropane-1-carboxamide]
Second: Cc1ccc(C(NC(=O)C2(c3ccc(N4CCS(=O)(=O)CC4)cc3)CCC2)c2ccc(C)o2)c(C)c1 (stereo not shown) (as salt: HCl) [Cpd. 41, N-[(2,4-dimethylphenyl)(5-methylfuran-2-yl)methyl]-1-[4-(1,1-dioxo-1-thiomorpholin-4-yl)phenyl]cyclobutane-1-carboxamide]
The melting point of the first is lower: 75 °C for the first, 79 °C for the second.

Going from `Cc1ccc(C(NC(=O)C2(c3ccc(N4CCS(=O)(=O)CC4)cc3)CC2)c2ccc(C)o2)c(N2CCCCC2)c1` (stereo not shown) (as salt: HCl) [Cpd. 32, 1-[4-(1,1-dioxo-1-thiomorpholin-4-yl)phenyl]-N-{[4-methyl-2-(piperidin-1-yl)phenyl](5-methylfuran-2-yl)methyl}cyclopropane-1-carboxamide] to `COc1ccc(C(NC(=O)C2(c3ccc(N4CCS(=O)(=O)CC4)cc3)CC2)c2ccc(C)o2)c(N2CCCCCC2)c1` (stereo not shown) (as salt: HCl) [Cpd. 46, N-{[2-(azepan-1-yl)-4-methoxyphenyl](5-methylfuran-2-yl)methyl}-1-[4-(1,1-dioxo-1-thiomorpholin-4-yl)phenyl]cyclopropane-1-carboxamide], the melting point falls from 98 °C to 90 °C.

Compared with `Cc1ccc(C(NC(=O)Cc2cnc(N3CCS(=O)(=O)CC3)nc2)c2ccc(C)o2)c(Br)c1` (stereo not shown) (as salt: HCl) [Cpd. 34, N-[(2-bromo-4-methylphenyl)(5-methylfuran-2-yl)methyl]-2-[2-(1,1-dioxo-1-thiomorpholin-4-yl)pyrimidin-5-yl]acetamide], `Cc1ccc(C(NC(=O)Cc2cnc(N3CCS(=O)(=O)CC3)nc2)c2ccc(C)o2)c(N2CC3CC3C2)c1` (stereo not shown) (as salt: HCl) [Cpd. 36, N-[(2-{3-azabicyclo[3.1.0]hexan-3-yl}-4-methylphenyl)(5-methylfuran-2-yl)methyl]-2-[2-(1,1-dioxo-1-thiomorpholin-4-yl)pyrimidin-5-yl]acetamide] is lower in melting point: 199 °C for the first, 105 °C for the second.

First: Cc1ccc(C(NC(=O)C2(c3ccc(N4CCS(=O)(=O)CC4)c(Br)c3)CC2)c2ccc(C)o2)c(N2CCCCC2)c1 (stereo not shown) (as salt: HCl) [Cpd. 37, 1-[3-bromo-4-(1,1-dioxo-1-thiomorpholin-4-yl)phenyl]-N-{[4-methyl-2-(piperidin-1-yl)phenyl](5-methylfuran-2-yl)methyl}cyclopropane-1-carboxamide]
Second: Cc1ccc(C(NC(=O)Cc2cnc(N3CCS(=O)(=O)CC3)nc2C)c2ccc(C)o2)c(N2CCCCC2)c1 (stereo not shown) (as salt: HCl) [Cpd. 38, 2-[2-(1,1-dioxo-1-thiomorpholin-4-yl)-4-methylpyrimidin-5-yl]-N-{[4-methyl-2-(piperidin-1-yl)phenyl](5-methylfuran-2-yl)methyl}acetamide]
The melting point of the first is higher: 106 °C for the first, 99 °C for the second.

Going from `Cc1ccc(C(NC(=O)C(C)(C)c2ccc(N3CCS(=O)(=O)CC3)cc2)c2ccc(C)o2)c(C)c1` (stereo not shown) (as salt: HCl) [Cpd. 40, N-[(2,4-dimethylphenyl)(5-methylfuran-2-yl)methyl]-2-[4-(1,1-dioxo-1-thiomorpholin-4-yl)phenyl]-2-methylpropanamide] to `COc1ccc(C(NC(=O)C2(c3ccc(N4CCS(=O)(=O)CC4)cc3)CC2)c2ccc(C)o2)c(C)c1` (stereo not shown) (as salt: HCl) [Cpd. 44, 1-[4-(1,1-dioxo-1-thiomorpholin-4-yl)phenyl]-N-[(4-methoxy-2-methylphenyl)(5-methylfuran-2-yl)methyl]cyclopropane-1-carboxamide], the melting point rises from 67 °C to 77 °C.

Compared with `Cc1ccc(C(NC(=O)Cc2cnc(N3CCS(=O)(=O)CC3)nc2C)c2ccc(C)o2)c(C)c1` (stereo not shown) (as salt: HCl) [Cpd. 42, N-[(2,4-dimethylphenyl)(5-methylfuran-2-yl)methyl]-2-[2-(1,1-dioxo-1-thiomorpholin-4-yl)-4-methylpyrimidin-5-yl]acetamide], `Cc1ccc(C(NC(=O)Cc2ccc(O)c(N3CCS(=O)(=O)CC3)c2)c2ccc(C)o2)c(C)c1` (stereo not shown) (as salt: HCl) [Cpd. 43, N-[(2,4-dimethylphenyl)(5-methylfuran-2-yl)methyl]-2-[3-(1,1-dioxo-1-thiomorpholin-4-yl)-4-hydroxyphenyl]acetamide] is lower in melting point: 211 °C for the first, 146 °C for the second.
